Patent US20150025077A1 (COYOTE PHARMACEUTICALS, INC., priority 2012, published 2015)
Like-named read-outs stand apart in the source and are kept apart here.

Key:
[1] = mouse, in vivo, po, 12 mg/kg
Text: Blood and serum samples from days P70 and P100 were collected on three animals from each of the six treatment groups. Hematology measures were white blood cell count, red blood cell count, hemoglobin, hematocrit, mean corpuscular volume, mean corpuscular hemoglobin, mean corpuscular hemoglobin concentration, and platelets. Chemistry values were alanine aminotransferase, aspartate aminotransferase, albumin, total protein, gamma globulin, blood urea nitrogen, cholesterol, and glucose. No analyses were conducted on any samples collected after P100.

HSP70 = details: rat eyes, single dose 12 mg/kg
Sprague Dawley rats = assay: Kainic acid stereotactic hippocampus injection model, fraction of cells damaged; format: in vivo, rat; details: for Difference of mean fraction damaged to pooled PBS / Mean fraction of cells damaged in the hippocampus: 12 mg/kg oral; for Mean fraction of cells damaged in the hippocampus: pooled PBS 0.187
Experimental: CNS-102 was administered orally to Sprague Dawley rats at 12 mg/kg. After dosing, KA was stereotactically injected into the hippocampus at 24, 48, 72, 96 and 168 hours to induce neuron damage. After 24 h, hippocampus tissue was collected, stained, and imaged. The scans were analyzed by Image J to calculate the fraction of cells having KA-induced damage. Average fraction damaged in the hippocampus from ten animals for each treatment (PBS vs. 12 mg/kg CNS-102) by time (24, 48, 72, 96 and 168 hours) combination was estimated with PROC MIXED in SAS. Comparisons of the CNS-102 treatment groups to the pooled PBS treatment at the different times can be made, giving the results tabulated below.
The fraction of cells damaged in the kainic acid model was determined on 130 rats, each receiving one dose of CNS-102 at either 0, 1, 3, 6, 12 or 24 mg/kg. PBS was used for dosing at 0 mg/kg. The linear model of the log10 percent damage versus concentration is graphically shown FIG. 5.
After dosing, KA was stereotactically injected into the hippocampus at 72 hours to induce neuron damage. After 24 h, hippocampus tissue was collected, stained, and imaged. The scans were analyzed by Image J to calculate the fraction of cells having KA-induced damage.
The indicated compounds or vehicle control were orally dosed to Sprague-Dawley rats, and Kainic acid was injected. After dosing, KA was stereotactically injected into the hippocampus at 72 hours to induce neuron damage. After 24 h, hippocampus tissue was collected, stained, and imaged. The scans were analyzed by Image J to calculate the fraction of cells having KA-induced damage. Neurons damaged by Kainic acid (mean of hippocampus CA3 neurons damaged) were quantified.

HSP90 [2] = assay: HSP90 expression in neuro2A cells, western blot; format: cell-based, mouse; details: 48 hours, GGTI-298
Experimental: Differentiation was induced and cells incubated with geranylgeranyl transferase I inhibitor, GGTI-298. Cells were harvested and lysates were prepared and analyzed by western blot for HSP70 and HSP90. Western signals in the absence of the compounds were normalized as 1.00.

[3] = test system: Murine neuro2A neuroblastoma cells; assay: Neurite outgrowth of neuro2A cells with GGTI-298 (Example 30); format: cell-based, mouse
Experimental: Differentiation was induced and cells incubated with geranylgeranyl transferase I inhibitor, GGTI-298. After 24 h digital images were taken and neurite outgrowth was quantified. The comparisons of the neuroprotective effect of these three compounds are shown below.
The estimated mean log10 counts, from five replicate wells for each treatment group were calculated by PROC GLM in SAS assuming a pooled estimate of variation.
The estimated mean log 10 counts from five replicate wells for each treatment group were calculated by PROC GLM in SAS assuming a pooled estimate of variation.
Differences in mean log(counts) between treatments for each concentration were calculated using PROC GLM in SAS. The p-value given is for the comparison of the estimated difference to zero, the expected difference value for no treatment effect. The anti-log of the differences represent the estimated ratio of counts (relative effect on inhibition) and are tabulated below along with the lower and upper 95% confidence intervals.

HSP90 [4] = assay: HSP90 gene expression in rat brain tissue, qRT-PCR; format: in vivo; details: 12 mg/kg oral
Experimental: […] Expression of selected HSPs was detected using qRT-PCR with expression of the GAPDH gene used as the control. To represent the effect of CNS-102 on HSP expression, mean fold change is calculated as CNS-102 treated/PBS treated for each HSP at each time point.

[5] = 10 nM, CNS-101/CNS-102 experiment
[6] = 100 nM, CNS-101/CNS-102 experiment
[7] = 100 nM, CNS-102/CNS-103 experiment
[8] = 1000 nM, CNS-101/CNS-102 experiment
[9] = 1000 nM, CNS-102/CNS-103 experiment
[10] = 10000 nM, CNS-101/CNS-102 experiment

Compound: CC(=O)CC/C=C(\C)CC/C=C(\C)CC/C=C(\C)CCC=C(C)C [CNS-102]
- ABSOLUTE BASOPHIL [1]: 0 per mm^3
- ABSOLUTE EOSINOPHIL [1]: 61.6 per mm^3
- ABSOLUTE LYMPHOCYTE [1]: 3922.4 per mm^3
- ABSOLUTE MONOCYTE [1]: 49.8 per mm^3
- ABSOLUTE NEUTROPHIL SEG [1]: 659.6 per mm^3
- ALKALINE PHOSPHATASE [1]: 70.7 U/L
- BASOPHIL [1]: 0.0%
- BICARBONATE [1]: 5.0 mg/dL
- BUN [1]: 28.8 mg/dL
- CALCIUM [1]: 7.7 mg/dL
- CHOLESTEROL [1]: 72.4 mg/dL
- CREATININE [1]: <1 mg/dL
- DIRECT BILIRUBIN [1]: 0.0 mg/dL
- EOSINOPHIL [1]: 1.5%
- GLUCOSE [1]: 207.6 mg/dL
- HCT [1]: 46.0%
- HGB [1]: 13.6 gram/dL
- INDIRECT BILIRUBIN [1]: 0.0 mg/dL
- LYMPHOCYTE [1]: 84.0%
- MCH [1]: 15.5 pg
- MCHC [1]: 29.5%
- MCV [1]: 52.6 U^3
- MONOCYTE [1]: 0.8%
- NEUTROPHIL SEG [1]: 13.8%
- NRBC [1]: 0.0 per 100 WBC
- PHOSPHORUS [1]: 5.7 mg/dL
- PLATELET COUNT [1]: 1128.6 Thousands
- RBC [1]: 8.8 Millions
- SGOT (AST) [1]: 46.3 U/L
- SGPT (ALT) [1]: 37.8 U/L
- TOTAL BILIRUBIN [1]: 0.0 mg/dL
- WBC [1]: 4.7 thousands
- HSP70 Expression (Fold change vs vehicle control), mean ± SD (HSP70; 24 hr): 1.47 ± 0.36
- HSP70 Expression (Fold change vs vehicle control), mean ± SD (HSP70; 48 hr): 1.33 ± 0.10
- HSP70 Expression (Fold change vs vehicle control), mean ± SD (HSP70; 72 hr): 1.40 ± 0.11
- Difference of mean fraction damaged to pooled PBS (Sprague Dawley rats; KA at 24 hours): 0.005
- Difference of mean fraction damaged to pooled PBS (Sprague Dawley rats; KA at 48 hours): −0.064
- Difference of mean fraction damaged to pooled PBS (Sprague Dawley rats; KA at 72 hours): −0.092
- Difference of mean fraction damaged to pooled PBS (Sprague Dawley rats; KA at 96 hours): −0.056
- Difference of mean fraction damaged to pooled PBS (Sprague Dawley rats; KA at 168 hours): −0.026
- Mean fraction of cells damaged in the hippocampus (Sprague Dawley rats; KA injected at 24 hours): 0.193
- Mean fraction of cells damaged in the hippocampus (Sprague Dawley rats; KA injected at 48 hours): 0.123
- Mean fraction of cells damaged in the hippocampus (Sprague Dawley rats; KA injected at 72 hours): 0.096
- Mean fraction of cells damaged in the hippocampus (Sprague Dawley rats; KA injected at 96 hours): 0.131
- Mean fraction of cells damaged in the hippocampus (Sprague Dawley rats; KA injected at 168 hours): 0.162
- Mean of Hippocampus CA3 Neurons Damaged (Sprague Dawley rats; 24 mg/Kg rat oral, KA at 72 hours): 19.8182 Arbitrary units
- minimal effective dose (Sprague Dawley rats; one dose of 0, 1, 3, 6, 12 or 24 mg/kg, kainic acid model): 12 mg/kg
- timepoint of maximal protection effect (Sprague Dawley rats; single dose of 12 mg/kg): 72 h
- HSP90 western signal (absence of compounds = 1.00) (HSP90 [2]; 100 nM): 3.29
- HSP90 western signal (absence of compounds = 1.00) (HSP90 [2]; 1 μM): 1.74
- HSP90 western signal (absence of compounds = 1.00) (HSP90 [2]; 10 μM): 1.21
- Ratio % of neurite outgrowth, CNS-102 to CNS-101 ([3]; 10 nM): 113.6%
- Protection % [3, 5]: 16.6%
- Median Counts (cells with neurite outgrowth) ([3]; 10 nM, CNS-101/CNS-102 experiment, no inhibition 95.5, PBS 21.5): 33.8
- ratio of counts relative to no inhibition [3, 5]: 0.354
- Ratio % of neurite outgrowth, CNS-102 to CNS-101 ([3]; 100 nM): 112.1%
- Ratio % of neurite outgrowth, CNS-102 to CNS-103 ([3]; 100 nM): 114.3%
- Protection % [3, 6]: 29.6%
- Median Counts (cells with neurite outgrowth) ([3]; 100 nM, CNS-101/CNS-102 experiment, no inhibition 95.5, PBS 21.5): 43.4
- ratio of counts relative to no inhibition [3, 6]: 0.454
- Protection % [3, 7]: 35.9%
- Median Counts (cells with neurite outgrowth) ([3]; 100 nM, CNS-102/CNS-103 experiment, no inhibition 60.3, PBS 18.5): 33.5
- ratio of counts relative to no inhibition [3, 7]: 0.556
- Ratio % of neurite outgrowth, CNS-102 to CNS-101 ([3]; 1000 nM): 122.7%
- Ratio % of neurite outgrowth, CNS-102 to CNS-103 ([3]; 1000 nM): 83.0%
- Protection % [3, 8]: 39.9%
- Median Counts (cells with neurite outgrowth) ([3]; 1000 nM, CNS-101/CNS-102 experiment, no inhibition 95.5, PBS 21.5): 51.0
- ratio of counts relative to no inhibition [3, 8]: 0.534
- Protection % [3, 9]: 12.7%
- Median Counts (cells with neurite outgrowth) ([3]; 1000 nM, CNS-102/CNS-103 experiment, no inhibition 60.3, PBS 18.5): 23.8
- ratio of counts relative to no inhibition [3, 9]: 0.395
- Ratio % of neurite outgrowth, CNS-102 to CNS-101 ([3]; 10000 nM): 137.8%
- Protection % [3, 10]: 22.6%
- Median Counts (cells with neurite outgrowth) ([3]; 10000 nM, CNS-101/CNS-102 experiment, no inhibition 95.5, PBS 21.5): 38.2
- ratio of counts relative to no inhibition [3, 10]: 0.400
- maximum protection ([3]; CNS-101/CNS-102 experiment (FIG. 4A)): ~40%
- maximum protection ([3]; CNS-102/CNS-103 experiment (FIG. 4B)): ~36%
- HSP90 mean fold change (CNS-102 treated/PBS treated), mean ± SD (HSP90 [4]; 24 h): 1.32 ± 0.95
- HSP90 mean fold change (CNS-102 treated/PBS treated), mean ± SD (HSP90 [4]; 48 h): 1.16 ± 0.55
- HSP90 mean fold change (CNS-102 treated/PBS treated), mean ± SD (HSP90 [4]; 72 h): 2.59 ± 1.27
- HSP90 mean fold change (CNS-102 treated/PBS treated), mean ± SD (HSP90 [4]; 96 h): 1.68 ± 0.72
